The subject of series [1] is HIV-1NL43. Briefly: Anti-HIV assay (single round), infectivity of virus produced, titered on TZM-b1 cells. Type of series: cell-based. To be noted: virus from NL43-transfected 293T cells, 72 hours; luciferase after two days; read-out: Infectivity 50%. Here is the method:
(§1) Anti-HIV Assays (Single Round). The inhibitory effect of the compounds on virus production and infectivity were determined by measuring the level of p24 produced in the presence of various concentrations of compounds from HEK-293 cells transiently transfected with pNL43 and by titering the virus on TZM-b1 cells. Briefly, 2.5×10^5 HEK-293 cells/ml were transfected with pNL43 using FuGene 6. Four hours post transfection the cells were plated in 96-well plates containing 100 μl of various concentrations of compounds (0-75 μM or 0-300 μM for mock transfected cells) in triplicate. At 72-hours post transfection virus supernatant was collected and stored at −80° C. until analysis. The level of p24 produced at each compound concentration was determined relative to the level produced in the presence of the DMSO only controls using HIV-1 p24 enzyme-linked immunosorbent assay (ELISA) (Beckman-Coulter). To determine the infectivity of the virus produced TZM-b1 cells were plated at 1×10^5 cells/ml in 100 μL in 96-well plates overnight. The next day, the media was replaced with 75 μL DMEM supplemented with 1% FBS, 1× PSG and 40 μg/ml DEAE Dextran and 25 μL of viral supernatant from the HEK-293 cells was added to each well. Three hours later 100 μL of DMEM with 7% FBS was added to each well. Two days after infection the cells were lysed and the level of luciferase expression was determined using the Bright-Glo assay.
(§2) FIGS. 12-18 show the anti-HIV assays for the examples of chemical compounds used according to the invention. After in-vitro assay, the chemical compounds in FIGS. 12-18 were selected for screening for cell viability and toxicity. Jurkat cells assay was used as screening assay. In Jurkat cells assay, JLTRG-R5 cells were used as Indicator cells and MOLT4 cells as Producer cells of NL43 and BAL virus. 96 chemical compounds were plated at seven different concentration from 75 μM to 0 μM at three-fold serial dilutions in 384 well plate. After five days, GFP expression was read. Cell viability was monitored with Alamar Blue assay. Luc M7 assay was designed to measure inhibitory activity of the chemical compounds to viral replication. After infection of cells with YU2 virus, plate cells in 96-well plate in the presence of six concentration of compounds in DMSO. At day 6, the number of cells in wells were read with Cell Titer Glo kit or by counting the number of cells infected with Bright Glo kit. 293T cells assay was designed to determine the toxicity. 293T cells were transfected with NL43. After four hours, transfected cells were plated in 96-well plate in DMSO and 2 μM Indinavir. 72 hours later, viral supernatant was collected and plated on JC53BL. Luciferase expression was measure after two days and p24 analysis was conducted with 1:1000 and 1:2000 dilutions.

The subject of another series is HIV-1YU2. Kind of series: Anti-HIV assay (multiple round), luciferase expression in Luc-M7 cells. Type of series: cell-based. To be noted: Luc-M7 cells infected with HIV-1YU2, 6 days, Bright-Glo. Here is the method: (§3) Anti-HIV Assays (Multiple Round). The inhibitory effects of the tested compounds on HIV-1YU2 replication were determined by the level of luciferase expression after 6 days of infection using Bright-Glo assay (Promega). An amount of 1.5×10^4 Luc-M7 (a gift from Ned Landau) cells per ml were infected with HIV-1YU2 at a multiplicity of infection (MOI) of 3. The HIV-1 infected ([…] compound) or mock-infected (0-300 μM compound) Luc-M7 cells were placed in 96-well culture plates (100 μl/well) with 100 μl of various concentrations of the compounds with 20 μg/ml DEAE Dextran in triplicate and incubated at 37° C. under 5% CO2 at 100% humidity. After 6 days, cell viability was quantified by Cell-Titer Glo assay (Promega). […] On day 5 cell viability was determined in the mock-infected cells. FIGS. 12-18 show the anti-HIV assays for the examples of chemical compounds used according to the invention. After in-vitro assay, the chemical compounds in FIGS. 12-18 were selected for screening for cell viability and toxicity. Jurkat cells assay was used as screening assay. […] After five days, GFP expression was read. Cell viability was monitored with Alamar Blue assay. Luc M7 assay was designed to measure inhibitory activity of the chemical compounds to viral replication. After infection of cells with YU2 virus, plate cells in 96-well plate in the presence of six concentration of compounds in DMSO. At day 6, the number of cells in wells were read with Cell Titer Glo kit or by counting the number of cells infected with Bright Glo kit. 293T cells assay was designed to determine the toxicity. 293T cells were transfected with NL43. After four hours, transfected cells were plated in 96-well plate in DMSO and 2 μM Indinavir. 72 hours later, viral supernatant was collected and plated on J[…].

Series [2] addresses T1, recombinant HIV-1 capsid protein (CA) (Human immunodeficiency virus type 1 group M subtype B, UniProt P12493).
T1 construct: recombinant HIV-1 capsid protein (CA); made in house
Briefly: Turbidity based HIV-1 capsid assembly assay. The series is classed as biochemical. The conditions noted are these: initial assembly rate by turbidity; twofold dilutions over a 128 fold range; 30 μM CA, 2.25 M NaCl. Here is the method: The kinetics can be followed by monitoring the increase of turbidity using a spectrophotometer. The IC50 of the chemical compound tested is determined by titration. As the C-domain inhibits capsid assembly by forming CA-C-domain heterodimers, the effect of added C-terminal domain on the rate of assembly was evaluated by plotting the rate of assembly versus C-terminal domain concentration.
Soluble HIV-1 capsid protein can be triggered to assemble into tubes similar in diameter and morphology to intact cores by dilution into high iconic strength buffer. The kinetics of assembly can be followed by monitoring the increase in turbidity using a spectrophotometer (Lanham et al., J. Virol., 76:6900, 2002). This assembly assay was adapted to a 96-well, microplate format to allow for medium-throughput screening of compounds by measuring turbidity in a Nepeloskan Ascent plate reader (Thermo Electron Corp., UK). A DIVERSet™ library of 10,000 low molecular weight, “drug-like” compounds was purchased from ChemBridge Corp. (San Diego, Calif.). This library was selected for its potential bioavailability and application based on a pharmacophore diversity analysis. The average molecular weight of the compounds is 347 g/mol, the range being 200-596 g/mol. The compounds came plated in 96-well plates and solubilized in DMSO at 5 mgs/mL.
Turbidity based assay. A 1.5 μL aliquot of compound was diluted 90-fold into 50 mM Na2HPO4, […] buffer, pH 8 in an optically clear 96-well plate. The plate containing compounds and salt was read to check for compound solubility and to serve as a background reading for the assay. To initiate the assembly reaction, 15 μL of […] stock (in 50 mM Na2HPO4 pH 8) of recombinant HIV-1 capsid protein (CA), purified as described (Lanman et al., J. Virol., 76:6900, 2002), was added to each well of the 96-well plate using a multi-channel pipettor. […] Furthermore, the halftime of the assembly reaction is ˜5 minutes so reading the plate in thirds prevented loss of initial rate data. Therefore, CA was added to the first 4 lanes, the reactions followed for ten minutes, reading was paused, CA was then added to the next four lanes and the process repeated. Instrument settings are as follows: PMT gain of 500 V, lamp at 10V, and integration time of 60 ms. The data were exported to a custom designed Excel spreadsheet that allowed simultaneous plotting of kinetic curves.
Recombinant CA protein was purified as previously described and stored at 300 μM at −80° C. A turbidity based assembly assay, described above, was adapted to a 96-well, microplate format to allow for medium-throughput screening of compounds in a Nepheloskan Ascent plate reader (Thermo Electron Corp., UK). A 1.5 μL aliquot of compound or DMSO was diluted 90-fold into 50 mM Na2HPO4, 2.25 M NaCl buffer, pH 8 in an optically clear 96-well plate. To initiate the assembly reaction, 15 μL of the 300 μM stock (in 50 mM Na2HPO4 pH 8) of recombinant HIV-1 capsid protein (CA), was added to each well of the 96-well plate using a multi-channel pipettor.

The test system of the next series is Luc-M7 cells. Kind of series: Cell viability of Luc-M7 cells (Cell-Titer Glo). Type of series: cell-based. On the set-up: unit: μM. To be noted: mock-infected Luc-M7 cells, 6 days. Here is the method: as §3
Series [3] in a line: MTS score (Table 1; method not described). Type of series: cell-based. The conditions noted are these: for MTS AVG 4 (No Effect): average of the MTS scores at 10, 30 and 100 μM; for MTS 10 μM: score at nominal 10 μM; for MTS 10 μM / MTS 30 μM / MTS 100 μM: 4 = No Effect; for MTS 30 μM: score at nominal 30 μM; for MTS 100 μM: score at nominal 100 μM.
The next series relates to 293T cells. Kind of series: Toxicity in 293T cells. Type of series: cell-based, human. On the set-up: unit not given beside the values. Here is the method: as §1, §2
The subject of series [4] is HIV-1NL43. Briefly: Anti-HIV assay (single round), p24 production by pNL43-transfected cells (ELISA). Type of series: cell-based. To be noted: p24 in supernatant of NL43-transfected 293T cells, 72 hours; read-out: p24 50%. Here is the method: as §1, §2
On the technique in general: In an ELISA, binding on a coated surface is turned into a signal by an enzyme label.

Results on seven molecules are retold here after patent publication US20090176776A1, “SMALL MOLECULE INHIBITORS OF HIV-1 CAPSID ASSEMBLY” (UNIVERSITY OF ALABAMA AT BIRMINGHAM, priority 2005, published 2009).

In the case of `CCc1ccc(OCCCCCn2ccnc2)cc1` [Compound 58], the IC50 in the series on HIV-1NL43 [1] amounted to 10 µM. The same molecule displayed an IC50 with HIV-1YU2 of 0.06 µM. For the same molecule, the IC50 in series [2] worked out at 25 µM. This molecule also registered a TC50 with Luc-M7 cells of 8.7. Moreover, in series [3], the “MTS AVG 4 (No Effect)” value is reported as 1.333, the “MTS 10 μM” value is on record as 2, the “MTS 30 μM” value is recorded as 1 and the “MTS 100 μM” value was 1. This molecule yielded a TC50% in the series on 293T cells of 5. The IC50 in the series with HIV-1NL43 [4] was 1.69 µM.
On to `O=C(O)C(S)Cc1ccc(Cl)cc1` (centres unmarked) [Compound 47], for which the IC50 with HIV-1NL43 [1] turned out to be 34.2 µM. Besides, the IC50 in series [2] was 37 µM. In series [3], the “MTS AVG 4 (No Effect)” value is on record as 2.000, the “MTS 10 μM” value is given as 4, the “MTS 30 μM” value turned out to be 1 and the “MTS 100 μM” value came to 1. Further, the TC50% with 293T cells was found to be 202. Moreover, the IC50 in the series with HIV-1NL43 [4] is 24.6 µM.
On to `Cc1nc2ccccc2n1Cc1ccc(Br)cc1` [Compound 18], for which the IC50 in the series with HIV-1NL43 [1] came out at 43.2 µM. For the same molecule, the IC50 in series [2] is 21 µM. Besides, in series [3], the “MTS AVG 4 (No Effect)” value amounted to 1.000, the “MTS 10 μM” value came out at 1, the “MTS 30 μM” value turned out to be 1 and the “MTS 100 μM” value amounted to 1. The same molecule had a TC50% in the series with 293T cells of 9.1. Also, the IC50 with HIV-1NL43 [4] was found to be 1.8 µM.
In the case of `CCN(CC)c1ccc(C=Nc2ccc(Sc3ccc([N+](=O)[O-])cc3)cc2)cc1` [Compound 70], the IC50 in the series on HIV-1NL43 [1] worked out at 32.9 µM; in the series with HIV-1YU2, 1.47 µM; in series [2], 33 µM; in the series with HIV-1NL43 [4] it was 67.5 µM. Further, in the series on Luc-M7 cells, the TC50 is recorded as 92.5. In addition, the “MTS AVG 4 (No Effect)” value in series [3] came to 3.000. For the same molecule, the “MTS 30 μM” value in series [3] stood at 4. Further, the “MTS 100 μM” value in series [3] was found to be 2. In addition, the TC50% in the series on 293T cells amounted to 135.
For the molecule `COc1ccc(NS(=O)(=O)c2ccc(Br)cc2)cc1OC` [Compound 14], the IC50 in the series with HIV-1NL43 [1] is above 75 µM. Moreover, the IC50 in series [2] is 10 µM. In series [3], the “MTS AVG 4 (No Effect)” value came out at 1.667, the “MTS 10 μM” value stood at 2, the “MTS 30 μM” value was 1 and the “MTS 100 μM” value is on record as 2. This molecule came in with a TC50% with 293T cells of 102. For the same molecule, the IC50 with HIV-1NL43 [4] stood at 62.8 µM.
As for `Cc1ccc(S(=O)(=O)NN=Cc2cc(Br)cc(Br)c2O)cc1` [Compound 73], the IC50 with HIV-1NL43 [1] came out at 32 µM. Also, in series [2], the IC50 was 15 µM. Besides, in series [3], the “MTS AVG 4 (No Effect)” value stood at 3.000, the “MTS 10 μM” value was determined as 4, the “MTS 30 μM” value was found to be 3 and the “MTS 100 μM” value was 2. For the same molecule, the TC50% with 293T cells stood at 178. Moreover, the IC50 with HIV-1NL43 [4] stood at 70 µM.
With `O=[N+]([O-])c1c(Cl)cc(O)c2c1C1C=CCC1C(c1ccc(Br)cc1)N2` (centres unmarked) [Compound 25], the IC50 with HIV-1NL43 [1] was determined as 17.7 µM. In addition, the IC50 in series [2] turned out to be 10 µM. Also, in series [3], the “MTS AVG 4 (No Effect)” value came out at 1.000, the “MTS 10 μM” value worked out at 1, the “MTS 30 μM” value is on record as 1 and the “MTS 100 μM” value is given as 1. The same molecule had a TC50% with 293T cells of 174. Also, the IC50 in the series on HIV-1NL43 [4] came out at 10.4 µM.
